Data on two compounds can be found in patent US8969081B2, “Caudal motor neuron derived from embryonic stem cells under conditions essentially free of any retinoid” (The Trustees of Columbia University in the City of New York, priority 2008, dated 2015).

“Also recorded” adds a separate entry of the source.

Assay [1] has as its system Hb9-GFP ES cells. Nature of the assay: Efficiency of motor neuron specification (Hb9-GFP+ cells). Type of assay: cell-based, mouse.
The test system of assay [2] is embryoid bodies from ES cells. Nature of the assay: Dorso-ventral progenitor marker expression in embryoid bodies. The class given is cell-based, mouse. The following applies: 1 μM HhAg1.3, absence of RA. How it is done:
(§1) Immunocytochemistry on ES cell-derived MNs and EBs was performed as previously described (Wichterle et al., 2002). Antibodies against the following proteins were used in the analysis during this study: Otx2, Hoxa5, Hoxc8, Hoxc6, Hoxc9, Hoxd9, Hoxd10, Foxp1, Lhx3, Pea3, Scip, NeuN, dsRed, NF.
To determine whether motor neuron progenitors are correctly specified at 1 μM concentrations of HhAg1.3 expression pattern of a series of DV progenitor markers were examined.
The endogenous Shh signaling centers have been identified as clusters of Foxa2+ cells expressing Shh (FIG. 2D).
Immunocytochemistry on dissociated ES-MNs and cryosectioned EBs was performed as previously described (Wichterle et al., 2002). In this study, the following antibodies were used: goat anti-Meis1 (Santa Cruz Biotechnology, SCB), mouse anti-Lhx3 (Developmental Studies Hybridoma Bank, DSHB), mouse anti-Lhx1/2 (DSHB), mouse anti-Nkx2.2 (DSHB), goat anti-Hoxc6 (SCB), rabbit anti-Hoxd9 (SCB), rabbit anti-Otx2 (kindly provided by G. Corte), mouse anti-Isl1 (DSHB), mouse anti-Hoxc 8 (DSHB), mouse anti-NeuN (Chemicon), rabbit anti-dsRed (Clontech), rabbit anti-Brachyury (SCB), mouse anti-Sonic Hedgehog (DSHB), mouse anti-FoxA2 (DSHB), mouse anti-Pax7 (DSHB), mouse anti-Hb9 (DSHB), guinea pig anti-Hb9 (kindly provided by the Project ALS laboratory). […]

In assay [3] the test system is Hb9-GFP ES cells. The note with it: MNs generated in the presence of RA (Wichterle et al., 2002); cited from earlier work.
Assay [4] concerns differentiating ES cells / ES-MNs. Nature of the assay: Rostro-caudal patterning of differentiating ES cells (Hox / positional marker immunostaining). Type of assay: cell-based, mouse. The procedure:
Differentiation of cervical level motor neurons from mouse ES cells was performed as previously described (Wichterle et al., 2002). For differentiation of caudal brachial level MNs from ES cells, ES cells were grown in ES cell medium for two days, dissociated and plated into non-adherent tissue culture dishes using ADFNK medium at a density of 20,000 cells/ml. Medium is changed each day but not on Day 3 and Day 4 of differentiation (three and four days after dissociation of ES cells and plating into differentiation medium, respectively). Addition of any factors to differentiating embryonic bodies (EBs) was performed on Day 3. These included: 1 μg/ml Dickopf-1 Dkk1 (R&D Systems), FGF Receptor Inhibitor (PD173074, 100 nM final concentration), FGFb (Recombinant Human, FTF-basic, 120-17, PeproTech), rhGdf11 (R&D Systems, Cat#1958-GD). GDNF (10 ng/ml, R&D Systems) was supplemented on Day 5 of differentiation in selected cultures.
(§2) For immunocytochemical analysis, embryonic bodies (EBs) were dissociated using 0.05% Trypsin-EDTA on Day 6 and plated at low densities on laminin coated coverslips using ADFNB medium supplemented with 10 ng/ml Glial cell-derived neurotrophic factor (GDNF). For quantification of MN subtypes, EBs were collected on Day 6 and dissociated using 0.05 Trypsin-EDTA. Dissociated cells were plated on laminin coated coverslips using ADFNB medium (DMEM/F12, Neurobasal, 1 ml B27 50× supplement and optional 5 ng/ml of GDNF to enhance survival of MN cultures) and fixed with 4% PFA one day later.
as §1
For each experiment, 10 distinct randomized image fields were taken using a confocal microscope LSM Zeiss Meta 510. Expression of all markers used for quantifications was gated to GFP positive cells, ES cell-derived spinal MNs. Images were analyzed for the expression of the above stated markers in the context of the ES cell-derived caudal brachial MNs. Each quantification is the result of at least three independent experiments (three independent differentiation experiments).
All experiments were performed with HBG3 ES cell line harboring Hb9-GFP transgene (Wichterle et al., 2002) and key experiments were confirmed using a control MM13 ES cell line. Differentiation of HBG3 ES cell line under RA/Hh conditions into rostral cervical MNs was performed as previously described (Wichterle et al., 2002; Wichterle and Peljto, 2008). For production of cervical MNs, ES cells were plated at 50,000 cells/ml in ADFNK differentiation medium [Advanced D-MEM/F-12 (Invitrogen): Neurobasal medium (Invitrogen) (1:1), 10% Knockout Serum Replacement (Invitrogen), […] L-Glutamine (Invitrogen), 0.1 mM β-mercaptoethanol (Sigma), and Pen/Strep (Invitrogen)]. Medium was completely changed on days 1, 2 and of differentiation. EBs were split 1:4 on day 2 of differentiation and the medium was supplemented with 1 μM all-trans retinoic acid (RA, Sigma) and Hh agonist (0.5 μM SAG, Calbiochem or 1 μM HhAg1.3, (Frank-Kamenetsky et al., 2002)). To generate caudal brachial level MNs from ES cells under FGF/Hh conditions, ES cells were plated into non-adherent tissue culture dishes in ADFNK medium (˜20,000 cells/ml). Embryoid bodies (EBs) were split 1:4 on day 2 of differentiation and the medium was changed on days 1, 2 and 5. Selected cultures were supplemented with the following reagents: 10 nM-1 μM RA, 10 nM-1 μM Hh Agonist, 1 μg/ml recombinant mouse Dickkopf-1 (R&D Systems), 50-100 nM FGF/VEGF Receptor Tyrosine Kinase Inhibitor (PD173074, Calbiochem) (Mohammadi et al., 1998), 100-625 ng/ml recombinant human bFGF (PeproTech), 20 ng/ml recombinant human Gdf11/Bmp11 (R&D Systems), 10 ng/ml recombinant rat GDNF (R&D Systems). […]

A further assay has as its system ES-MNs. Nature of the assay: Columnar and divisional identity of ES-MNs (FoxP1, Lhx3, Lhx1 immunostaining). Type of assay: cell-based, mouse. The procedure: as §2, §1
For each experiment, 10 distinct randomized image fields were taken using a confocal microscope LSM Zeiss Meta 510. Expression of all markers used for quantifications was gated to GFP positive cells, ES cell-derived spinal MNs. Images were analyzed for the expression of the above stated markers in the context of the ES cell-derived caudal brachial MNs. Each quantification is the result of at least three independent experiments (three independent differentiation experiments). […]

On to `CNC1CCC(N(Cc2cccc(-c3ccncc3)c2)C(=O)c2sc3ccccc3c2Cl)CC1` (stereo not drawn) [HhAg1.3], for which the “Percentage of Hb9-GFP+ cells with increasing Hh agonist” value in the assay on Hb9-GFP ES cells [1] (10 nM, 50 nM, 100 nM, 1 μM on day 2, EBs dissociated day 7) is “does not significantly change the percentage of Hb9-GFP^+ cells”. The “Motor neuron generation at high HhAg1.3 concentrations” value in the assay on Hb9-GFP ES cells [1] (ADFNK medium, >500 nM) is “failure to generate motor neurons”. The “GFP positive MNs, % of all cells” value in the assay on Hb9-GFP ES cells [1] (ADFNK medium, absence or low concentrations of HhAg1.3 (<100 nM) added Day 2, Day 6) is on record as 8-10%. Besides, in assay [2], the “Expression of Nkx2.2 and Foxa2 (Hnf3β)” value is on record as “most cells within embryoid bodies expressed the ventral-most markers”; the “Expression of Pax7, Pax6 and Olig2” value is on record as “not detected”. For the same compound, in the assay with Hb9-GFP ES cells [3], the “HhAg1.3 concentration that efficiently induces cervical MNs” value is 0.5 to 2 µM.
Take `CC1=C(/C=C/C(C)=C/C=C/C(C)=C/C(=O)O)C(C)(C)CCC1` [RA, all-trans retinoic acid, reference compound]: the “Hoxc8 expression in ES-MNs, loss after RA” value in assay [4] (10 nM RA on day 3 of differentiation, two independent experiments) is approximately 10%. In assay [4] (Example 1, EBs supplemented on Day 3, markers examined two to four days later), the “Rostro-caudal positional marker expression / segmental identity” value is reported as “induced rostral cervical identity characterized by Hoxa5 expression”. In addition, the “Rostro-caudal identity of MNs after RA” value in assay [4] (Example 2, 10 nM-1 μM on day 3, stained day 7) is recorded as “specification of Hoxa5^+ rostral cervical MNs; also recorded: generation of Hoxa5^+ cervical MNs lacking expression of more posterior Hox genes”. The “Rostro-caudal identity (Hoxc8+ ES-MNs) after late RA” value in assay [4] (RA on day 4 or 5 of differentiation) is “did not change the rostro-caudal positional identity; also recorded: does not result in significant changes in the numbers of Hoxc8^+ ES-MNs”. For the same compound, the “FoxP1+ ES-MNs expressing Lhx1” value in the assay on ES-MNs (RA (1 μM) on day 5 of differentiation, analysed day 7) turned out to be 15%. In addition, the “Lhx1+ BrdU- ES-MNs” value with ES-MNs (RA on day 5, BrdU from day 5 onwards, dissociated day 6) is reported as approximately 10%.
